Converted amounts (≈) assume the structure as drawn.
Columns and labels:
Test in all cases: Antibacterial activity evaluation test, MIC by broth microdilution (CLSI)
Format in all cases: cell-based
[1] = test system: AmpC-derepressed Pseudomonas aeruginosa mutant strain (S-3028); conditions: for MIC: Pseudomonas aeruginosa
Procedure: (§1) The minimum inhibitory concentration (MIC) was measured according to the Clinical and Laboratory Standards Institute (CLSI) standard method by using the following broth microdilution method.
(§2) As bacteria, a Pseudomonas aeruginosa strain ATCC27853, an AmpC-derepressed Pseudomonas aeruginosa mutant strain (S-3028), an IMP-1-containing Pseudomonas aeruginosa strain (S-2838), a VIM-2-containing Pseudomonas aeruginosa strain (S-3779), a GES-19 and GES-20-containing Pseudomonas aeruginosa strain (S-3759), a CTX-M-15-containing Escherichia coli strain (TK-1747), a KPC-2-containing Klebsiella pneumoniae strain (Y-995), an OXA-48-containing Klebsiella pneumoniae strain (Y-1062), and an NDM-1-containing Klebsiella pneumoniae strain (Y-1007) were used. The test bacterial cells that had been cultured overnight on a Mueller Hinton agar medium were scraped off, suspended at a density equivalent to 0.5 McFarland standard, and diluted 10-fold, thereby obtaining an inoculum. A cation-adjusted Mueller Hinton medium containing a test compound was inoculated with 0.005 mL of the inoculum, and the cells were cultured at 35° C. for 16 to 20 hours. The minimum drug concentration at which the growth of bacteria was not visually observed was defined as MIC (μg/mL).
(§3) An antibacterial activity evaluation test was performed in the same manner as in Test Example 1.

[2] = test system: CTX-M-15-containing Escherichia coli strain (TK-1747); conditions: for MIC: Escherichia coli
Procedure: as §1, §2, §3

[3] = test system: GES-19 and GES-20-containing Pseudomonas aeruginosa strain (S-3759); conditions: for MIC: Pseudomonas aeruginosa
Procedure: as §1, §2, §3

[4] = test system: IMP-1-containing Pseudomonas aeruginosa strain (S-2838); conditions: for MIC: Pseudomonas aeruginosa
Procedure: as §1, §2, §3

[5] = test system: KPC-2-containing Klebsiella pneumoniae strain (Y-995); conditions: for MIC: Klebsiella pneumoniae
Procedure: as §1, §2, §3

[6] = test system: NDM-1-containing Klebsiella pneumoniae strain (Y-1007); conditions: for MIC: Klebsiella pneumoniae
Procedure: as §1, §2, §3

[7] = test system: OXA-48-containing Klebsiella pneumoniae strain (Y-1062); conditions: for MIC: Klebsiella pneumoniae
Procedure: as §1, §2, §3

[8] = test system: Pseudomonas aeruginosa strain ATCC27853; conditions: Pseudomonas aeruginosa, ATCC27853
Procedure: as §1, §2, §3

[9] = test system: VIM-2-containing Pseudomonas aeruginosa strain (S-3779); conditions: for MIC: Pseudomonas aeruginosa
Procedure: as §1, §2, §3

Row | Structure (SMILES) | MIC [1] | MIC [2] | MIC [3] | MIC [4] | MIC [5] | MIC [6] | MIC [7] | MIC [8] | MIC [9] | Antibacterial activity (MIC) Pseudomonas aeruginosa S-3028 ([1]; Pseudomonas aeruginosa S-3028) | Antibacterial activity (MIC) Escherichia coli TK-1747 ([2]; Escherichia coli TK-1747) | Antibacterial activity (MIC) Pseudomonas aeruginosa S-3759 ([3]; Pseudomonas aeruginosa S-3759) | Antibacterial activity (MIC) Pseudomonas aeruginosa S-2838 ([4]; Pseudomonas aeruginosa S-2838) | Antibacterial activity (MIC) Klebsiella pneumoniae Y-995 ([5]; Klebsiella pneumoniae Y-995) | Antibacterial activity (MIC) Klebsiella pneumoniae Y-1007 ([6]; Klebsiella pneumoniae Y-1007) | Antibacterial activity (MIC) Klebsiella pneumoniae Y-1062 ([7]; Klebsiella pneumoniae Y-1062) | Antibacterial activity (MIC) Pseudomonas aeruginosa ATCC 27853 [8] | Antibacterial activity (MIC) Pseudomonas aeruginosa S-3779 ([9]; Pseudomonas aeruginosa S-3779)
1 | CC(C)(O/N=C(\C(=O)N[C@@H]1C(=O)N2C[C@@](C(=O)O)(N3CCN(NC(=O)c4cc(Cl)c(O)c(O)c4Cl)C3=O)S[C@H]12)c1csc(N)n1)C(=O)O [Example 83, (3R,5R,6R)-6-((Z)-2-(2-aminothiazol-4-yl)-2-(((2-carboxypropan-2-yl)oxy)imino)acetamido)-3-(3-(2,5-dichloro-3,4-dihydroxybenzamido)-2-oxoimidazolidin-1-yl)-7-oxo-4-thia-1-azabicyclo[3.2.0]heptane-3-carboxylic acid] | 0.5 µg/mL (≈ 0.669 µM) | 0.5 µg/mL (≈ 0.669 µM) | 1 µg/mL (≈ 1.34 µM) | 0.5 µg/mL (≈ 0.669 µM) | 0.25 µg/mL (≈ 0.334 µM) | < 0.06 µg/mL | 2 µg/mL (≈ 2.68 µM) | 0.25 µg/mL (≈ 0.334 µM) | 0.5 µg/mL (≈ 0.669 µM) |  |  |  |  |  |  |  |  | 
2 | CC(C)(O/N=C(\C(=O)N[C@@H]1C(=O)N2C[C@@](C(=O)O)(N3CCN(NC(=O)C(=O)c4ccc(O)c(O)c4Cl)C3=O)S[C@H]12)c1nc(N)sc1Cl)C(=O)O [Example 22, (3R,5R,6R)-6-((Z)-2-(2-amino-5-chlorothiazol-4-yl)-2-(((2-carboxypropan-2-yl)oxy)imino)acetamido)-3-(3-(2-(2-chloro-3,4-dihydroxyphenyl)-2-oxoacetamido)-2-oxoimidazolidin-1-yl)-7-oxo-4-thia-1-azabicyclo[3.2.0]heptane-3-carboxylic acid] | 0.5 µg/mL (≈ 0.645 µM) | < 0.06 µg/mL | 0.5 µg/mL (≈ 0.645 µM) | 0.5 µg/mL (≈ 0.645 µM) | 0.06 µg/mL (≈ 0.0774 µM) | < 0.06 µg/mL | 0.06 µg/mL (≈ 0.0774 µM) | 0.5 µg/mL (≈ 0.645 µM) | 0.25 µg/mL (≈ 0.322 µM) |  |  |  |  |  |  |  |  | 
3 | CC(C)(O/N=C(\C(=O)N[C@@H]1C(=O)N2C[C@@](C(=O)O)(N3CCN(/N=C/C=N/NC(=O)NCCNC(=O)c4ccc(O)c(O)c4Cl)C3=O)S[C@H]12)c1csc(N)n1)C(=O)O [Example 53, (3R,5R,6R)-6-((Z)-2-(2-aminothiazol-4-yl)-2-(((2-carboxypropan-2-yl)oxy)imino)acetamido)-3-(3-(((1E,2E)-2-(2-((2-(2-chloro-3,4-dihydroxybenzamido)ethyl)carbamoyl)hydrazono)ethylidene)amino)-2-oxoimidazolidin-1-yl)-7-oxo-4-thia-1-azabicyclo[3.2.0]heptane-3-carboxylic acid] | 1 µg/mL (≈ 1.17 µM) | 2 µg/mL (≈ 2.34 µM) | 2 µg/mL (≈ 2.34 µM) | 4 µg/mL (≈ 4.69 µM) | 2 µg/mL (≈ 2.34 µM) | 0.12 µg/mL (≈ 0.141 µM) | 0.5 µg/mL (≈ 0.586 µM) | 0.5 µg/mL (≈ 0.586 µM) | 0.5 µg/mL (≈ 0.586 µM) |  |  |  |  |  |  |  |  | 
4 | CC(C)(O/N=C(\C(=O)NC1C(=O)N2C[C@@](C(=O)O)(N3CCC[C@H](NC(=O)C(=O)c4ccc(O)c(O)c4Cl)C3=O)S[C@H]12)c1csc(N)n1)C(=O)O (stereo partly drawn) [Example 156] |  |  |  |  |  |  |  |  |  | 0.5 µg/mL | 0.12 µg/mL | 2 µg/mL | 1 µg/mL | 0.12 µg/mL | < 0.06 µg/mL | 0.5 µg/mL | 2 µg/mL | 1 µg/mL
5 | Nc1nc(/C(=N/O[C@@H](CO)C(=O)O)C(=O)NC2C(=O)N3C[C@@](C(=O)O)(N4CCN(NC(=O)C(=O)c5ccc(O)c(O)c5Cl)C4=O)S[C@H]23)cs1 (stereo partly drawn) [Example 113, (3R,5R,6R)-6-((Z)-2-(2-aminothiazol-4-yl)-2-(((S)-1-carboxy-2-hydroxyethoxy)imino)-acetamido)-3-(3-(2-(2-chloro-3,4-dihydroxy-phenyl)-2-oxoaceta-mido)-2-oxoimidazol-idin-1-yl)-7-oxo-4-thia-1-azabicyclo[3.2.0]-heptane-3-carboxylic acid] | 0.25 µg/mL (≈ 0.336 µM) | < 0.06 µg/mL | 1 µg/mL (≈ 1.35 µM) | 0.5 µg/mL (≈ 0.673 µM) | 0.12 µg/mL (≈ 0.161 µM) | < 0.06 µg/mL | 0.25 µg/mL (≈ 0.336 µM) | 4 µg/mL (≈ 5.38 µM) | 0.5 µg/mL (≈ 0.673 µM) |  |  |  |  |  |  |  |  | 
6 | Nc1nc(/C(=N/OC2(C(=O)O)CC2)C(=O)N[C@@H]2C(=O)N3C[C@@](C(=O)O)(N4CCN(NC(=O)c5ccc(O)c(O)c5Cl)C4=O)S[C@H]23)cs1 [Example 8, (3R,5R,6R)-6-((Z)-2-(2-aminothiazol-4-yl)-2-((1-carboxycyclopropoxy)imino)acetamido)-3-(3-(2-chloro-3,4-dihydroxybenzamido)-2-oxoimidazolidin-1-yl)-7-oxo-4-thia-1-azabicyclo[3.2.0]heptane-3-carboxylic acid] | 0.5 µg/mL (≈ 0.703 µM) | 0.12 µg/mL (≈ 0.169 µM) | 2 µg/mL (≈ 2.81 µM) | 4 µg/mL (≈ 5.63 µM) | 0.06 µg/mL (≈ 0.0844 µM) | < 0.06 µg/mL | 16 µg/mL (≈ 22.5 µM) | 0.25 µg/mL (≈ 0.352 µM) | 1 µg/mL (≈ 1.41 µM) |  |  |  |  |  |  |  |  | 
7 | CC(C)(O/N=C(\C(=O)N[C@@H]1C(=O)N2C[C@@](C(=O)O)(N3CCN(NC(=O)c4ccc(O)c(O)c4Cl)C3=O)S[C@H]12)c1csc(N)n1)C(=O)O [Example 2, (3R,5R,6R)-6-((Z)-2-(2-aminothiazol-4-yl)-2-(((2-carboxypropan-2-yl)oxy)imino)acetamido)-3-(3-(2-chloro-3,4-dihydroxybenzamido)-2-oxoimidazolidin-1-yl)-7-oxo-4-thia-1-azabicyclo[3.2.0]heptane-3-carboxylic acid] | 1 µg/mL (≈ 1.4 µM) | 0.25 µg/mL (≈ 0.351 µM) | 4 µg/mL (≈ 5.61 µM) | 0.5 µg/mL (≈ 0.701 µM) | 0.12 µg/mL (≈ 0.168 µM) | < 0.06 µg/mL | 2 µg/mL (≈ 2.8 µM) | 1 µg/mL (≈ 1.4 µM) | 0.25 µg/mL (≈ 0.351 µM) |  |  |  |  |  |  |  |  | 
8 | CCC[C@H](O/N=C(\C(=O)NC1C(=O)N2C[C@@](C(=O)O)(N3CCN(NC(=O)C(=O)c4ccc(O)c(O)c4Cl)C3=O)S[C@H]12)c1csc(N)n1)C(=O)O (stereo partly drawn) [Example 115, (3R,5R,6R)-6-((Z)-2-(2-aminothiazol-4-yl)-2-(((S)-1-carboxy-butoxy)imino)aceta-mido)-3-(3-(2-(2-chloro-3,4-dihydroxy-phenyl)-2-oxoaceta-mido)-2-oxoimidazol-idin-1-yl)-7-oxo-4-thia-1-azabicyclo[3.2.0]-heptane-3-carboxylic acid] | 0.12 µg/mL (≈ 0.159 µM) | 0.25 µg/mL (≈ 0.331 µM) | 0.5 µg/mL (≈ 0.662 µM) | 1 µg/mL (≈ 1.32 µM) | 0.25 µg/mL (≈ 0.331 µM) | < 0.06 µg/mL | 1 µg/mL (≈ 1.32 µM) | 0.5 µg/mL (≈ 0.662 µM) | 0.5 µg/mL (≈ 0.662 µM) |  |  |  |  |  |  |  |  | 
9 | C[C@H]1CN(/N=C/CNC(=O)C(=O)c2ccc(O)c(O)c2Cl)C(=O)N1[C@]1(C(=O)O)CN2C(=O)C(NC(=O)/C(=N\OC(C)(C)C(=O)O)c3csc(N)n3)[C@H]2S1 (stereo partly drawn) [Example 47] | 0.12 µg/mL (≈ 0.151 µM) | < 0.06 µg/mL | 1 µg/mL (≈ 1.26 µM) | 4 µg/mL (≈ 5.02 µM) | 0.5 µg/mL (≈ 0.628 µM) | < 0.06 µg/mL | 0.25 µg/mL (≈ 0.314 µM) | 0.5 µg/mL (≈ 0.628 µM) | 1 µg/mL (≈ 1.26 µM) |  |  |  |  |  |  |  |  | 
10 | C[C@H]1CN(/N=C/CNC(=O)c2ccc(O)c(O)c2Cl)C(=O)N1[C@]1(C(=O)O)CN2C(=O)C(NC(=O)/C(=N\OC(C)(C)C(=O)O)c3csc(N)n3)[C@H]2S1 (stereo partly drawn) [Example 45] | 2 µg/mL (≈ 2.6 µM) | 0.12 µg/mL (≈ 0.156 µM) | 2 µg/mL (≈ 2.6 µM) | 2 µg/mL (≈ 2.6 µM) | 0.25 µg/mL (≈ 0.325 µM) | < 0.06 µg/mL | 1 µg/mL (≈ 1.3 µM) | 1 µg/mL (≈ 1.3 µM) | 1 µg/mL (≈ 1.3 µM) |  |  |  |  |  |  |  |  | 

Source: patent US20220241249A1, “PHARMACEUTICAL COMPOSITION AND KIT CONTAINING NOVEL PENAM DERIVATIVE OR SALT THEREOF AND ONE OR MORE COMPOUNDS SELECTED FROM beta-LACTAMASE INHIBITORY COMPOUND AND ANTIBACTERIAL COMPOUND OR SALTS THEREOF” (priority 2019, published 2022)
